Laboratory results from patent publication US4304903A, “D-Erythro-2,3-dihydroxy-1-(1-phenyl-1H-pyrazolo(3,4-b)quinoxalin-3-y l)-propyl-4-O-α-D-glucopyranosyl-alpha-D-glucopyranoside poly(H-sulfate)salts” (American Cyanamid Company, priority 1980, dated 1981).
Counter-ions that a name gives are not always drawn. Like-named read-outs stand apart in the source and are kept apart here.

Legend:
[1] = tested on: late components of human complement (C3-C9); experiment: Test Code 035 (C3-C9 inhibitor); assay type: biochemical; parameters: key: N = Inactive; details: serial twofold dilution assay; higher well number indicates higher activity; lysis of EAC 142
Excerpt: (§1) An active inhibitor protects C2 from C1 and C4; (ii) Test Code 035 (C3-C9 inhibitor)--This test determines the ability of the late components of human complement (C3-C9) to lyse EAC 142 in the presence of appropriate dilutions of the test compound. An active inhibitor protects EAC 142 from lysis by human C3-C9; (iii) Test Code 036 (C-Shunt inhibitor)--In this test human erythrocytes rendered fragile are lysed in autologous serum via the shunt pathway activated by cobra venom factor in the presence of appropriate dilutions of the test compound. Inhibition of the shunt pathway results in failure of lysis; (iv) Forssman Vasculitis Test--Here, the well known complement dependent lesion, Forssman vasculitis, is produced in guinea pigs by intradermal injection of rabbit anti-Forssman antiserum. […] Percent inhibition is calculated by comparison with simultaneous controls. […]

[2] = tested on: serum complement activity; experiment: Guinea Pig Intraperitoneal Test (GPIP); assay type: in vivo; details: Cavia porcellus, ip, 200 mg./kg. i.p.
Excerpt: An active inhibitor protects C2 from C1 and C4; (ii) Test Code 035 (C3-C9 inhibitor)--This test determines the ability of the late components of human complement (C3-C9) to lyse EAC 142 in the presence of appropriate dilutions of the test compound. An active inhibitor protects EAC 142 from lysis by human C3-C9; (iii) Test Code 036 (C-Shunt inhibitor)--In this test human erythrocytes rendered fragile are lysed in autologous serum via the shunt pathway activated by cobra venom factor in the presence of appropriate dilutions of the test compound. Inhibition of the shunt pathway results in failure of lysis; (iv) Forssman Vasculitis Test--Here, the well known complement dependent lesion, Forssman vasculitis, is produced in guinea pigs by intradermal injection of rabbit anti-Forssman antiserum. The lesion is measured in terms of diameter, edema and hemorrhage and the extent to which a combined index of these is inhibited by prior intraperitoneal injection of the test compound at 200 mg./kg. is then reported, unless otherwise stated; (v) Forssman Shock Test--Lethal shock is produced in guinea pigs by an i.v. injection of anti-Forssman antiserum and the harmonic mean death time of treated guinea pigs is compared with that of simultaneous controls; (vi) Complement Level Reduction Test--In this test, the above dosed guinea pigs, or others, are bled for serum and the complement level is determind in undiluted serum by the capillary tube method of U.S. Pat. No. 3,876,376 and compared to undosed control guinea pigs; (vii) Cap 50 Test--Here, appropriate amounts of the test compound are added to a pool of quinea Pig serum in vitro, after which the undiluted serum capillary tube assay referred to above is run. The concentration of compound inhibiting 50% is reported; (viii) Guinea Pig Intraperitoneal Test (GPIP)--Guinea pigs weighing about 300 g. are dosed intraperitoneally (i.p.) with 200 mg./kg. of the test compound dissolved in saline and adjusted to pH 7-8. […] Percent inhibition is calculated by comparison with simultaneous controls. […]

activated human C1 = target: T1, activated human C1 (Homo sapiens, UniProt P09871); experiment: Test Code 026 (C1 inhibitor); assay type: biochemical; details: serial twofold dilution assay; higher well number indicates higher activity
T1 sequence (P09871 16-437 limits assumed): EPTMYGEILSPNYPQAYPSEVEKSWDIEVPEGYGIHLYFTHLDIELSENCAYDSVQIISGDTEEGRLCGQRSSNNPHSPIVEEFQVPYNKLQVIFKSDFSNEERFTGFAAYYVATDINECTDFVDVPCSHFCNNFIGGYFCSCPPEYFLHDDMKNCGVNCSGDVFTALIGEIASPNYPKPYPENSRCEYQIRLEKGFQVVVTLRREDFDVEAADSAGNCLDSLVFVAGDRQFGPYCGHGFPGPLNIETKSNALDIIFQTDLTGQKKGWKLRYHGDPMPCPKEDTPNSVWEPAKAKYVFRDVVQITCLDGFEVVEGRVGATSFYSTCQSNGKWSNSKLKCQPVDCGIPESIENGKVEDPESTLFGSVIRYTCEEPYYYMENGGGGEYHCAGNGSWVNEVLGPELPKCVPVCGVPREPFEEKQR
T1 sequence (P09871 438-688 limits assumed): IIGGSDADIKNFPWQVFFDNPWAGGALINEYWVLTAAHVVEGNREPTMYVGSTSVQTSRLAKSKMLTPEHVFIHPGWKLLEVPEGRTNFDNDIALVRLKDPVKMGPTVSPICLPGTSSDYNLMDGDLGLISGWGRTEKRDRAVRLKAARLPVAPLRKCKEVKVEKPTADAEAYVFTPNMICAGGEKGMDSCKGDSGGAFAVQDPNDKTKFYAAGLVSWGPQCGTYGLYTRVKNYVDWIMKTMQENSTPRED
Excerpt: as §1

O=S(=O)(O)OC[C@H]1O[C@H](O[C@@H](c2nn(-c3ccccc3)c3nc4ccccc4nc23)[C@@H](COS(=O)(=O)O)OS(=O)(=O)O)[C@H](OS(=O)(=O)O)[C@@H](OS(=O)(=O)O)[C@@H]1O[C@H]1O[C@H](COS(=O)(=O)O)[C@@H](OS(=O)(=O)O)[C@H](OS(=O)(=O)O)[C@H]1OS(=O)(=O)O [D-Erythro-2,3-dihydroxy-1-(1-phenyl-1H-pyrazolo[3,4-b]quinox] [D-Erythro-2,3-dihydroxy-1-(1-phenyl-1H-pyrazolo[3,4-b]quinoxalin-3-yl)propyl-4-O-α-D-glucopyranosyl-α-D-glucopyranoside, nonakis(H-sulfate), nonasalt with trimethylamine]
035 In Vitro Activity (activity in wells) [1]: N

O=S(=O)(O)OC[C@H]1O[C@H](O[C@@H](c2nn(-c3ccccc3)c3nc4ccccc4nc23)[C@@H](COS(=O)(=O)O)OS(=O)(=O)O)[C@H](OS(=O)(=O)O)[C@@H](OS(=O)(=O)O)[C@@H]1O[C@H]1O[C@H](COS(=O)(=O)O)[C@@H](OS(=O)(=O)O)[C@H](OS(=O)(=O)O)[C@H]1OS(=O)(=O)O [D-Erythro-2,3-dihydroxy-1-(1-phenyl-1H-pyrazolo[3,4-b]quinoxalin-3-yl)propyl-4-O-α-D-glucopyranosyl-α-D-glucopyranoside, nonakis(H-sulfate), nonasodium salt]
inhibition at 200 mg/kg ([2]; 0.5 h, serum 30 minutes after injection, read-out: In Vivo Activity (Guinea Pig) (Intraperitoneal) % Inhibition, 30 minutes): -58% | inhibition at 200 mg/kg ([2]; 1 h, serum 60 minutes after injection, read-out: In Vivo Activity (Guinea Pig) (Intraperitoneal) % Inhibition, 60 minutes): -56% | inhibition at 200 mg/kg ([2]; 2 h, serum 120 minutes after injection, read-out: In Vivo Activity (Guinea Pig) (Intraperitoneal) % Inhibition, 120 minutes): -76%

Cc1cc2nc3c([C@H](O[C@H]4O[C@H](COS(=O)(=O)O)[C@@H](O[C@H]5O[C@H](COS(=O)(=O)O)[C@@H](OS(=O)(=O)O)[C@H](OS(=O)(=O)O)[C@H]5OS(=O)(=O)O)[C@H](OS(=O)(=O)O)[C@H]4OS(=O)(=O)O)[C@@H](COS(=O)(=O)O)OS(=O)(=O)O)nn(-c4ccccc4)c3nc2cc1C [D-Erythro-2,3-dihydroxy-1-(6,7-dimethyl-1-phenyl-1H-pyrazolo[3,4-b]quinoxalin-3-yl)propyl-4-O-α-D-glucopyranosyl-α-D-glucopyranoside, nonakis(H-sulfate), nonasalt with trimethylamine]
026 In Vitro Activity (activity in wells) (activated human C1): +5 wells | 035 In Vitro Activity (activity in wells) [1]: +1 wells
